Molecular target: T1, AR in VCaP cells (Homo sapiens, UniProt P10275)
T1 construct: Assay on Degradation Activity for AR in VCaP Cells; endogenous in cells; host or cells: VCaP cells
T1 sequence (P10275 1-920): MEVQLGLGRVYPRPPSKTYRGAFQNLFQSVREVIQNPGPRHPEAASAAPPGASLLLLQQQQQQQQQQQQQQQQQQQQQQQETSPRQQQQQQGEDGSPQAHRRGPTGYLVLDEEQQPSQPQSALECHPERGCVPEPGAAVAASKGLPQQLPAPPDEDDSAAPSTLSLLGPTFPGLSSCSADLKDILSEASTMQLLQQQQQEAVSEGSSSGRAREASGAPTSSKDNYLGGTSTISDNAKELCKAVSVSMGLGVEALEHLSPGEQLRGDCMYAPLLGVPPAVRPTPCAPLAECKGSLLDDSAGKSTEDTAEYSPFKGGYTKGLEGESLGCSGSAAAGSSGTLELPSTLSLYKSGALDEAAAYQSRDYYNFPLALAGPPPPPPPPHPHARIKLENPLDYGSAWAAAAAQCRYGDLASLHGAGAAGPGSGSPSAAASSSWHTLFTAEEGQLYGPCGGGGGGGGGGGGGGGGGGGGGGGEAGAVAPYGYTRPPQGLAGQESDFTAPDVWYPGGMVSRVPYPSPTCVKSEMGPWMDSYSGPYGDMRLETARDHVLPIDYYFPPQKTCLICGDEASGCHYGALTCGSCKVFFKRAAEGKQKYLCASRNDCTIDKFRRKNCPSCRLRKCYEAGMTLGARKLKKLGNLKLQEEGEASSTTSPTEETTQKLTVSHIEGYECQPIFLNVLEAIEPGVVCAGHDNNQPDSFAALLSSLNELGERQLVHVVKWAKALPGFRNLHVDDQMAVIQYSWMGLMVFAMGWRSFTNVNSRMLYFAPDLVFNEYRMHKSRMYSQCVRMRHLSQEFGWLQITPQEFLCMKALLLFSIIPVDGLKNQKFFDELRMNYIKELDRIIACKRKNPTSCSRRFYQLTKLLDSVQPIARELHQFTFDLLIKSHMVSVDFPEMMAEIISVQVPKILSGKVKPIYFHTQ
Experiment: Assay on degradation activity for AR in VCaP cells (HTRF human androgen receptor detection kit)
Format: cell-based
Conditions: 24 h incubation
Outline: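 VCaP cells seeded overnight in 2% CSS-FBS phenol red-free DMEM, then treated 24 h with compound at 1000 nM–0.977 nM final, in duplicate. Lysates probed with AR Eu cryptate/d2 antibody HTRF (2 h, 25° C., 665/620 nm); DC50 and Dmax from four-parameter dose-response fits.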

For `N#Cc1ccc(O[C@H]2CC[C@H](NC(=O)c3ccc(C4CCN(C5CN(c6cc7onc(C8CCC(=O)NC8=O)c7c7ccccc67)C5)CC4)nn3)CC2)cc1Cl` (stereo partly shown) [Compound 48], the DC50 was no more than 1 nM.

Source: US20260035384A1, “COMPOUND CONTAINING CYCLOHEXYL” (CHIA TAI TIANQING PHARMACEUTICAL GROUP CO., LTD., priority 2022, published 2026)
